Data: patent publication US9604894B2, “Compounds from antrodia camphorate and their use in treatment of diabetes mellitus” (National Dong Hwa University, priority 2014, dated 2017)
Entries after “also recorded” stand apart in the source; their conditions may differ.

Assays:
[1] = test system: AKT Thr308 phosphorylation; assay: AKT Thr308 phosphorylation, Western blot in differentiated C2C12 cells; format: cell-based, mouse; conditions: C2C12, 37° C., 30 min; insulin 100 nM, metformin 16 mM, antroquinonol 25 μM; FIG. 3(A)
Procedure: (§1) FIG. 3(A) provides the results of the AKT Thr308 phosphorylation induced by insulin, metformin (Met) and antroquinonol (Ant); wherein the differentiated C2C12 cells were incubated with 100 nM of insulin, 16 mM of metformin (Met), or 25 μM of antroquinonol (Ant) at 37° C. for 30 min, and then the cell lysates were separated by SDS-PAGE and blotted for phospho-AKT Thr308; wherein the data were expressed as means with standard errors of mean (mean±SEM), and different letters represent the significant differences (p<0.05) among the various treatments.
Mouse muscle myoblast cells (C2C12) were obtained from the Food Industry Research and Development Institute (FIRDI, Hsinchu, Taiwan). The cells were grown and maintained in Dulbecco's Modified Eagle's Medium containing high level of glucose (DMEM-high glucose; GIBCO, Carlsbad, Calif., USA) supplemented with 10% fetal bovine serum (FBS, GIBCO) and 1% penicillin streptomycin (GIBCO) in a cell culture incubator with 5% CO2 at 37° C. Prior to experiment, the cells were seeded and cultured at a density of 8×10^3 cells per well in 96-well plates or 2.5×10^5 cells per well in 6-well plates. […]
(§2) After treatments, the cells were collected and washed twice in cold KRH buffer (containing 50 mM HEPES, 137 mM NaCl, 4.8 mM KCl, 1.85 mM CaCl2, 1.3 mM MgSO4), and then lysed in ice-cold RIPA buffer (containing 50 mM Tris-HCl, pH 8.0, 150 mM NaCl, 5 mM NaF, 1% NP40, 1 mM sodium orthovanadate, 0.5% sodium deoxycholate, 0.1% sodium dodecyl sulphate (SDS), protease inhibitors, and phosphatase inhibitors (DE-68305, Roche, Mannheim, Germany)) and incubated at 4° C. for 60 min. After centrifugation of the cells at 12,000×g at 4° C. for 30 min, the supernatant was kept and quantified by Bradford protein assay (Bio-Rad, Hercules, Calif., USA). […] The signals were monitored using Western Lightning™ Plus-ECL (Perkin Elmer Life Sciences) and the PVDF membrane was exposed to Luminescent image analyzer (LAS)-3000 (Fujifilm, Minato, Tokyo, Japan). The acquired data were analyzed and compared the difference among various treatments. […]

[2] = test system: AMPK Thr172 phosphorylation; assay: AMPK Thr172 phosphorylation, Western blot in differentiated C2C12 cells; format: cell-based, mouse; conditions: C2C12, 37° C., 30 min; insulin 100 nM, metformin 16 mM, antroquinonol 25 μM; FIG. 3(B)
Procedure: as §1, with “3(B)” for “3(A)”, “AMPK Thr172” for “the AKT Thr308”, “phospho-AMPK Thr172;” for “phospho-AKT Thr308;”
Mouse muscle myoblast cells (C2C12) were obtained from the Food Industry Research and Development Institute (FIRDI, Hsinchu, Taiwan). […]
After treatments, the cells were collected and washed twice in cold KRH buffer (containing 50 mM HEPES, 137 mM NaCl, 4.8 mM KCl, 1.85 mM CaCl2, 1.3 mM MgSO4), and then lysed in ice-cold RIPA buffer (containing 50 mM Tris-HCl, pH 8.0, 150 mM NaCl, 5 mM NaF, 1% NP40, 1 mM sodium orthovanadate, 0.5% sodium deoxycholate, 0.1% sodium dodecyl sulphate (SDS), protease inhibitors, and phosphatase inhibitors (DE-68305, Roche, Mannheim, Germany)) and incubated at 4° C. for 60 min. After centrifugation of the cells at 12,000×g at 4° C. for 30 min, the supernatant was kept and quantified by Bradford protein assay (Bio-Rad, Hercules, Calif., USA). […]

C57 BL/6 mice = assay: Oral glucose tolerance test in S961-induced insulin resistance mice; format: in vivo, mouse; conditions: D-glucose 2 g/kg; for hypoglycemic efficacy, OGTT blood glucose AUC: S961 50 nmol/kg Bwt, enantiomer 50 mg/kg Bwt p.o., FIG. 7(B)
Procedure: (§3) Animal experiments were approved by the National Dong-Hwa University Animal Ethics Committee and were used according to the “Guide for the Care and Use of Laboratory Animals” of National Dong-Hwa University. C57BL/6 mouse and Imprinting Control Region (ICR) mouse were obtained National Laboratory Animal Center (Taipei, Taiwan) and kept at controlled environmental conditions with room temperature (22±2° C.) and humidity (50±10%). The 12 h light (0600 am-1800 pm) and 12 h dark cycle was maintained throughout the study. Mice had free access to food and water and maintained on a standard laboratory diet (carbohydrates; 60%, proteins; 28%, lipids; 12%, vitamins; 3%).
(§4) Mice were employed to this test after fasting 12 h. Mice were treated with D-glucose by oral gavage (2 g/kg, p.o.). At approximately 0, 30, 60, 90, and 120 min, blood was sampled by venipuncture from the tail vein for the determining blood glucose. Blood glucose was immediately determined by the glucose oxidase method using glucose analyzer (Accu-Chek, Roche).
8 weeks old male C57 BL/6 mice were employed to this test after fasting 12 h. To investigate the effect of natural compounds on the 5961 (insulin receptor antagonist, Novo-Nordisk, Denmark) induced hyperglycemia, mice was intraperitoneally injected (i.p.) S961 (50 nmol/kg Bwt) at 15 min prior to oral gavaged (p.o.) with antroquinonol (dissolved in PEG and EtoH, 50 mg/kg Bwt) and D-glucose (2 g/kg Bwt). At approximately 0, 30, 60, 90, and 120 min, blood was sampled by venipuncture from the tail vein for OGTT test.

DIO ICR mice [3] = assay: Short term glucose tolerance (OGTT) in diet-induced obesity (DIO) ICR mice; format: in vivo, mouse; conditions: antroquinonol 25 mg/kg Bwt versus Sitagliptin 20 mg/kg Bwt, 15 min before D-glucose 2 g/kg, FIG. 8
Procedure: as §3, §4
(§5) 8 weeks old ICR male mice were induced with high fat die and 60% fructose water for 10 weeks. […] Blood glucose was immediately determined by the glucose oxidase method using glucose analyzer (Accu-Chek, Roche), when blood sugar was sustained at higher level than 200 mg/dl after 120 min oral glucose that defined high blood sugar. […]

DIO ICR mice [4] = assay: Long term glucose tolerance (OGTT) in diet-induced obesity (DIO) ICR mice; format: in vivo, mouse; conditions: antroquinonol 25 mg/kg Bwt versus Sitagliptin 10 mg/kg Bwt, q.o.d. for 4 weeks, FIG. 9
Procedure: as §3, §4, §5

PKA protein level = assay: Glucagon like peptide-1 induced PKA protein level, Western blot in AR42J cells; format: cell-based, rat; conditions: 5 μM and 20 μM, with 1 nM GLP-1 or 1 nM exendin-4, 48 h, FIG. 4
Procedure: Rat pancreas tumor cells (AR42J) were obtained from the Food Industry Research and Development Institute (FIRDI, Hsinchu, Taiwan). The cells were grown and maintained in DMEM (GIBCO) supplemented with 20% fetal bovine serum (FBS, GIBCO) and 1% penicillin streptomycin (GIBCO) and 2 mM of L-glutamin in a cell culture incubator with 5% CO2 at 37° C. Prior to the experiments, the cells were seeded and cultured for 16-24 h.
as §2

[5] = biological target: T1, Dipeptidyl peptidase-4 (DPP4) (Homo sapiens, UniProt P27487); assay: DPP4 enzyme activity (DPPIV/CD26 Assay Kit); format: biochemical; conditions: 100 μM, 30 min at RT; FIG. 2
T1 construct: purchased Enzo BML-AK498
T1 sequence (P27487 whole entry): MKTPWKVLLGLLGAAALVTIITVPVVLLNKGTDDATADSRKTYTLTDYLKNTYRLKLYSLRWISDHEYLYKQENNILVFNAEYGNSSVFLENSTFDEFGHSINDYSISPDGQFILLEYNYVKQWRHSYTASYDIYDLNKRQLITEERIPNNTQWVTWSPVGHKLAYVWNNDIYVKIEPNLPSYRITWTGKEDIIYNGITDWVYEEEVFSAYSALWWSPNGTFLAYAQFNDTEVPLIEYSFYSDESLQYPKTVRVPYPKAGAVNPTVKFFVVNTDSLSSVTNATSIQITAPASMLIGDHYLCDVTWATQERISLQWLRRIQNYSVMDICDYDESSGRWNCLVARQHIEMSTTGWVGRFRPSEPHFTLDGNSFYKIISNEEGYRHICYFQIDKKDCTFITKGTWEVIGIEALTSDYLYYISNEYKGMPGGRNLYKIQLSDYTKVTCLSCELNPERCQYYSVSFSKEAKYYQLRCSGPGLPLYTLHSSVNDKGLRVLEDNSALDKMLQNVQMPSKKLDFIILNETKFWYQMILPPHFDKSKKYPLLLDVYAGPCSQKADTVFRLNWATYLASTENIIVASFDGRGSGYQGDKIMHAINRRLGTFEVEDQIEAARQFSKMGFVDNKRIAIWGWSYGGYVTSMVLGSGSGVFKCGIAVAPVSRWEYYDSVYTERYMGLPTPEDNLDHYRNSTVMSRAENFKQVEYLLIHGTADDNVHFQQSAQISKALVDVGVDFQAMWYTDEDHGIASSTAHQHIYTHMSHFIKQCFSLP
Procedure: Dipeptidyl peptidase-4 (DPP4), also known as adenosine deaminase complexing protein 2 or CD26 (cluster of differentiation 26), is […]. DPP4 enzyme activity was measured by a DPPIV/CD26 Assay Kit (BML-AK498, Enzo, N.Y., USA). This assay is based on the cleavage of the p-nitroaniline (pNA) from the chromogenic substrate (H-Gly-Pro-pNA) to increase the absorbance at 405 nm. Firstly 50 μL of assay buffer (50 mM Glycine, pH 8.7, 1 mM EDTA) per will was added into the 96-well clear microplate, and then 20 μL of DPP4 enzyme (13 μU/μL), 20 μL of tested inhibitors, 100 μM of antroquinonol or known clinical drug sitagliptin, and finally 10 μL of pNA substrate were added to each well sequentially. After an incubation of reaction mixture at room temperature (RT) for 30 min, the absorbance of each sample was read at 405 nm by the ELISA plate reader (Thermo Labsystems, Opsys MR, Thermo fisher scientific).

GLUT4 translocation = assay: Measurement of GLUT4 translocation in differentiated C2C12 cells; format: cell-based, mouse; conditions: FIG. 5(A)
Procedure: Mouse muscle myoblast cells (C2C12) were obtained from the Food Industry Research and Development Institute (FIRDI, Hsinchu, Taiwan). The cells were grown and maintained in Dulbecco's Modified Eagle's Medium containing high level of glucose (DMEM-high glucose; GIBCO, Carlsbad, Calif., USA) supplemented with 10% fetal bovine serum (FBS, GIBCO) and 1% penicillin streptomycin (GIBCO) in a cell culture incubator with 5% CO2 at 37° C. Prior to experiment, the cells were seeded and cultured at a density of 8×10^3 cells per well in 96-well plates or 2.5×10^5 cells per well in 6-well plates. After the myoblasts achieved 80% confluence, the cells were incubated for 4 days in DMEM—high glucose supplemented with 1% FBS and 1% horse serum induced differentiation to myotubes.
C2C12 was fully differentiated with DMEM supplemented with 1% FBS and 1% horse serum for 4 days. The cells were washed twice with PBS containing 0.1% BSA and subsequently incubated in PBS with or without the treatment with 185 μM insulin (Ins), 16 mM metformin (Met), or 50, 100, and 150 μM of antroquinonol (Ant) for 55 min (n=5 in each group) respectively, and then placed on ice and immediately fixed with 1% glutaraldehyde in PBS at RT for 10 min. […] HRP activity was determined by measuring the absorbance at 450 nm with a spectrophotometer (EnSpire 2300 Multilabel Reader, Perkin Elmer, Waltham, Mass., USA). […]

CN(C)C(=N)N=C(N)N [metformin, reference compound]
AKT Thr308 phosphorylation [1]: not | AMPK Thr172 phosphorylation [2]: provided an effect in action to the phosphorylation of AMPK Thr172

COC1=C(OC)[C@@H](O)[C@@H](C/C=C(\C)CC/C=C(\C)CCC=C(C)C)[C@H](C)C1=O [(−)-antroquinonol]
hypoglycemic efficacy, OGTT blood glucose AUC (C57 BL/6 mice): had the hypoglycemic efficacy

insulin
AKT Thr308 phosphorylation [1]: induced insulin signaling pathway at the phosphorylation of AKT Thr308

COC1=C(OC)[C@H](O)[C@H](C/C=C(\C)CC/C=C(\C)CCC=C(C)C)[C@@H](C)C1=O [antroquinonol]
hypoglycemic efficacy, OGTT blood glucose AUC (ratio to the control) (C57 BL/6 mice; S961-treated mice, antroquinonol 50 mg/kg Bwt p.o., metformin 100 mg/kg as positive control, FIG. 7(A)): had the hypoglycemic efficacy in the condition of insulin resistance through the oral glucose tolerance test (OGTT), similar to Metformin | glucose tolerance, OGTT blood glucose AUC, short term (DIO ICR mice [3]): effects similar to Sitagliptin | glucose tolerance, OGTT blood glucose AUC, long term (DIO ICR mice [4]): effects similar to Sitagliptin | PKA protein level (PKA protein level): PKA protein level was expressed | inhibitory rate of DPP4 activity (compared to the control without treatment) [5]: up to 50% | AKT Thr308 phosphorylation [1]: not | AMPK Thr172 phosphorylation [2]: significantly better efficacy on the phosphorylation of AMPK Thr172 than insulin and metformin | GLUT4 translocation, comparison with metformin (GLUT4 translocation; C2C12, 100 μM of antroquinonol): equivalent to 16 mM metformin | GLUT4 translocation (GLUT4 translocation; C2C12, antroquinonol 50, 100, 150 μM versus insulin 185 μM and metformin 16 mM, 55 min): good effect on GLUT4 translocation similar to insulin (Ins), and which is even better than metformin (Met); also recorded: enhanced GLUT4 translocation with dose-dependent manner

(+)-antroquinonol
hypoglycemic efficacy, OGTT blood glucose AUC (C57 BL/6 mice): had the hypoglycemic efficacy
